This note sets out measurements from patent US10188758B2, “Organic compounds” (INTRA-CELLULAR THERAPIES, INC., priority 2015, dated 2019).

By Ki is commonly meant a measure of affinity in units of concentration, obtained from inhibition or displacement.

Entries after “also recorded” stand apart in the source; their conditions may differ.

One assay addresses human NET (Homo sapiens (Human), UniProt P23975). Put plainly: Novascreen Norepinephrine, Transporter NET (h) binding, recombinant CHO cells, [3H]-Nisoxetine. The source says:
(§1) The NET and SERT binding may be assayed to determine if the compounds of the disclosure specifically bind to NET or SERT. An exemplary procedure for assaying NET binding may be found in Raisman et al., Eur. Jrnl. Pharmacol. (1982) 78:345-351 and in Langer et al., Eur. Jrnl. Pharmac. (1981) 72:423. An exemplary procedure for assaying SERT binding may be found in D'Amato et al., Jrnl. Pharmcacol. & Exp. Ther. (1987) 242:364-371 and in Brown et al., Eur. Jrnl. Pharmac. (1986) 123:161-165. The contents of each of these references are incorporated by reference in their entirety.
(§2) The binding affinity of the compounds of the current disclosure is measured using a Novascreen against rodent NET, human NET and human SERT. Duloxetine is used as a positive control. Details of the Novascreen may be found in the following: • http://www.perkinelmer.com/Catalog/Product/ID/100-0123, • http://www.perkinelmer.com/Catalog/Product/ID/100-0048, • http://www.perkinelmer.com/Catalog/Product/ID/100-0146, and • http://www.perkinelmer.com/Catalog/Product/ID/100-0099.
For the binding affinity of the compounds of the current disclosure against NET, the following paramenters are used: • Assay Type: Binding • Species: Rat • Origin: Forebrain • Ligand: [3H]-Nisoxetine • Ligand [M]: 1.00E-09 • Kd (Binding Affinity): 9.00E-10 • Bmax: 10.5 fmol/mg tissue (wet weight) • Method: Radioactivity • Measurement: DPM • Assay Name: Norepinephrine, Transporter NET (h) • Assay Type: Binding • Species: Human • Origin: Recombinant/CHO cells • Ligand: [3H]-Nisoxetine • Ligand [M]: 1.00E-09 • Kd (Binding Affinity): 3.00E-09 • Bmax: 10 pmol/mg protein • Method: Radioactivity • Measurement: DPM

The target in a further assay is human SERT (Homo sapiens (Human), UniProt P31645). Kind of assay: Novascreen Serotonin, Transporter SERT (h) binding, platelets, [3H]Citalopram, N-Methyl.
Text: as §1, §2
For the binding affinity of the compounds of the current disclosure for SERT, the following paramenters are used: • Assay Name: Serotonin, Transporter SERT (h) • Assay Type: Binding • Species: Human • Origin: Platelets • Ligand: [3H]Citalopram, N-Methyl • Ligand [M]: 7.00E-10 • Kd (Binding Affinity): 2.50E-09 • Bmax: 425 fmol/mg protein • Method: Radioactivity • Measurement: DPM

In another assay the test system is naloxone-induced flush. Put plainly: Morphine-dependent rat model of hot flashes (naloxone-induced flush, tail skin temperature). Format: in vivo. The conditions noted are these: 30 mg/kg p.o., FIG. 1. The source says: Morphine-dependent Rat Model: The effectiveness of the compounds of the present disclosure to reduce hot flashes may be evaluated by measuring its ability to reduce morphine-induced rise in TST. Ovariectomized rats may be subcutaneously injected with a vehicle (sterile water) once daily for 8 days. On day-4, two tablets of slow-release morphine may be implanted subcutaneously in the dorsal scapular region of the rats to induce morphine dependence. On day-5 and -6, morphine withdrawal may be induced by subcutaneous administration of 1.0 mg/Kg of naloxone, a general opioid antagonist. […] Ketamine (40 mg/Kg) may be injected after test compound to induce sedation so as to avoid temperature fluctuation due to stress associated with restriction of their movement and attachment of thermistor probe to the their tails. All drug- related effects may be compared to a vehicle control group which also receives ketamine. TST may be monitored continuously for 35 minutes. The average TST measured 25, 30 and 35 minutes prior to naloxone injection may be used to establish a baseline temperature. Hot flash reduction may be determined by evaluating the statistical differences between the baseline temperature and 15 minutes after naloxone treatment when the change in TST may be observed to be maximum.

human NET, sequence (P23975 whole entry): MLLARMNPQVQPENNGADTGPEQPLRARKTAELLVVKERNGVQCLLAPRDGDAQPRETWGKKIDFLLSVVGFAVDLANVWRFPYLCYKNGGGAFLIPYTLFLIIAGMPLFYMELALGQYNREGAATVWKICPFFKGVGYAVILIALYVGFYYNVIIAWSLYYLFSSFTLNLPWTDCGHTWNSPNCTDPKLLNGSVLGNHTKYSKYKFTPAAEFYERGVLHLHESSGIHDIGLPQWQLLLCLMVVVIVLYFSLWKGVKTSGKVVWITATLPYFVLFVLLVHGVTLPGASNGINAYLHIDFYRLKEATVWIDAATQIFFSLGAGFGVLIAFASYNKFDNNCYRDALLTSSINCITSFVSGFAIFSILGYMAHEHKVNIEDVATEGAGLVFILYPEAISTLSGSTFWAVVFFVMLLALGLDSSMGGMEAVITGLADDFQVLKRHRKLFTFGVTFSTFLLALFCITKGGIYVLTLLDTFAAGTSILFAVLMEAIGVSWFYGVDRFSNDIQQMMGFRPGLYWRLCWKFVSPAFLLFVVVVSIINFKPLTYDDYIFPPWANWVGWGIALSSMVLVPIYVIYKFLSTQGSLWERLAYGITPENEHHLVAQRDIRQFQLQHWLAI
human SERT, sequence (P31645 whole entry): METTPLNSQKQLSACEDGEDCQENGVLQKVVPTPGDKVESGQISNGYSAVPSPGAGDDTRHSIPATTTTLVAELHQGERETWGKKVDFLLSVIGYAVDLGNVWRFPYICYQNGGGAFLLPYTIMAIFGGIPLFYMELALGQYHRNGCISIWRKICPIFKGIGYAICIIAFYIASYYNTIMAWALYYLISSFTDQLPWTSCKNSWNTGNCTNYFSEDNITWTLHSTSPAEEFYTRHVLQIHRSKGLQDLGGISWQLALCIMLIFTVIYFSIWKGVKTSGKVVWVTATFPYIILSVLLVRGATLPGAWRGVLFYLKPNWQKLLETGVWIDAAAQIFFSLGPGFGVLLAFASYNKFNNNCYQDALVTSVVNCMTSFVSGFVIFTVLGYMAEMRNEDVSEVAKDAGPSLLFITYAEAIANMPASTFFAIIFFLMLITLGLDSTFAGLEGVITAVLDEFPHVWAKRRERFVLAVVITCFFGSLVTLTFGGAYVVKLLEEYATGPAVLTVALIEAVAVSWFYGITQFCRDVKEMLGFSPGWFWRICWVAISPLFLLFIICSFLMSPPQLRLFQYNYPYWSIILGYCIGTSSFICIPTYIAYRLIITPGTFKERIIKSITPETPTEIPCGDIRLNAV

In the case of `CCNCC[C@@H](Oc1cccnc1OC)c1ccccc1` [Compound 4, (R)-N-ethyl-3-(2-methoxypyridin-3-yloxy)-3-phenylpropan-1-amine], the Ki is 81.4 nM at human NET and 240 nM at human SERT.

Consider `CCNCC[C@@H](Oc1cccnc1OCC)c1ccccc1` [Compound 5, (R)-3-(2-ethoxypyridin-3-yloxy)-N-ethyl-3-phenylpropan-1-amine], for which the Ki was 37.3 nM at human NET and 579 nM at human SERT.

On to `CNCC[C@@H](Oc1cccnc1OCCO)c1ccccc1` [Example 1, (R)-2-(3-(3-(Methylamino)-1-phenylpropoxy)pyridin-2-yloxy)ethanol], for which, on human NET, the Ki turned out to be 39 nM.

`CCOc1ncccc1O[C@H](CCN)c1ccccc1` [Example 2, (R)-3-Phenyl-3-(2-ethoxypyridin-3-yloxy)propan-1-amine]: the Ki on human NET amounted to 69 nM.

`CCOc1ncccc1O[C@H](CCNC)c1ccccc1` [Example 3, (R)-3-(2-Ethoxypyridin-3-yloxy)-N-methyl-3-phenylpropan-1-amine]: the “reduction of naloxone-induced flush” value in the assay on naloxone-induced flush is recorded as “effective in reducing naloxone-induced flush; also recorded: effective in reducing naloxone-inducted flush”. The Ki at human NET worked out at 4.2 nM; at human SERT, 318 nM.
